# From patent publication US10421944B2, “Method for producing neural stem cells using synthetic peptide” (TOAGOSEI CO. LTD., priority 2015, dated 2019)
# Tested on: CCD1079SK cells (fibroblasts from human skin tissue)
# Experiment: Test to evaluate neural stem cell-inducing activity (fluorescent immunostaining of nestin and GFAP in fibroblasts)
# Type: cell-based
# Conditions: peptide 10 μM, 18 days of culture at 30° C., compared with peptide-free group
# Procedure: Neural stem cells were induced (prepared) from fibroblasts using the neural stem cell-inducing synthetic peptide (Sample 1) obtained in Example 1 above. The test cells were CCD1079SK cells (ATCC™ CRL-2097), a cultured cell line of fibroblasts from human skin tissue. The test details were as follows.
# Previously frozen CCD1079SK cells were seeded to a cell density of 1.2×10^5/well in a cell culture chamber (also called a slide chamber). The cell culture chamber had one well per slide (culture area 19 mm×44 mm). Specifically, the thawed CCD1079SK cells were suspended in ordinary Dulbecco's modified Eagle's medium (DMEM) to prepare a cell suspension with a cell density of 1.2×10^5/mL, and 1 mL of this cell suspension was seeded in the aforementioned cell culture chamber. The DMEM medium was ordinary DMEM (Wako Pure Chemical Industries, Ltd., Cat. No. 043-30085) with 10% FBS, 100 units/mL penicillin and 100 μg/mL streptomycin added thereto. The CCD1079SK cells seeded in the cell culture chamber were pre-cultured for several hours (about six hours) until the cells adhered to the bottom of the culture container in the incubator under conditions of 5% CO2, 37° C. […]
sequence,measurement,setting,value
LLLLLLVGLTAPAGKKRTLRKNDRKKR [Sample 1],expression of neural stem cell marker protein nestin (cells with increased quantities of nestin protein),confocal laser microscopy (FIG. 1 vs FIG. 3),more cells with increased quantities of nestin protein
same,expression of neural stem cell marker protein GFAP (cells with increased quantities of GFAP),confocal laser microscopy (FIG. 2 vs FIG. 4),more cells with increased quantities of nestin protein and GFAP
